This passage reports GI50 and TGI results from PubChem BioAssay (NCI).

Holding throughout (experiment): NCI anticancer screen, dose series, 48 h
Experiment [1] has as its system A498 renal.
For experiment [2], the system named is CAKI-1 renal.
The test system of experiment [3] is HCC-2998 colon.
Experiment [4] has as its system HL-60(TB) leukemia.
For experiment [5], the system named is HOP-62 NSCLC.
Experiment [6] concerns LOX IMVI melanoma.
The subject of experiment [7] is MDA-MB-435.
Experiment [8] deals with OVCAR-3 ovarian.
The subject of experiment [9] is PC-3 prostate.
Experiment [10] has as its system UO-31 renal.

Structures are written as SMILES.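 Method: 48-hour compound exposure of cells in 96-well plates, five concentrations, linear interpolation of endpoints. Abbreviation: GI50, concentration required for 50% inhibition of growth. TGI: total growth inhibition.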

On to `C#CCOc1ccc2ncnc(Nc3ccc(NC(=O)C=C)cc3)c2c1`, for which the GI50 in [1] was greater than 100 µM; in experiment [2], greater than 100 µM; in [3] it was greater than 100 µM; in experiment [4], 4.97 µM; in experiment [5], greater than 100 µM; in experiment [6] it was 3.92 µM. For the same compound, the GI50 in [7] is 36.2 µM; in [8], 8.24 µM; in experiment [9] it was 70.4 µM; in [10], 11.6 µM. Besides, the TGI is greater than 100 µM in experiment [1]; greater than 100 µM in experiment [2]; greater than 100 µM in experiment [3]; 32.5 µM in experiment [4]; greater than 100 µM in experiment [5]; 17.5 µM in experiment [6]. Besides, the TGI in experiment [7] is greater than 100 µM; in experiment [8], greater than 100 µM; in experiment [9], greater than 100 µM; in experiment [10], 44.4 µM.

On to `O=C(CC(Cl)=C(Cl)Cl)c1cccc(Cl)c1Cl`, for which the GI50 in experiment [1] is greater than 100 µM; in experiment [4], 64.8 µM; in experiment [5], 82.1 µM; in experiment [6], 38.1 µM; in experiment [9], 78.3 µM; in experiment [10] it was 59.4 µM. Besides, the TGI in [1], in experiment [4], in experiment [5], in experiment [6], in experiment [9] and in experiment [10] was greater than 100 µM each time.

With `O=C1c2ccccc2C(=O)c2c(OCCOCCO)cccc21`, the TGI in experiment [2] is 74.2 µM; in experiment [4] it was greater than 100 µM; in experiment [5], greater than 100 µM; in experiment [6] it was greater than 100 µM; in [7], greater than 100 µM; in experiment [8], greater than 100 µM. In addition, the TGI in experiment [9] and in experiment [10] was greater than 100 µM throughout.

Regarding `O=C(COc1cccc(/C=C2\CSc3ccccc3C2=O)c1)Nc1nccs1`, the GI50 in experiment [1] was 15.3 µM; in experiment [2], 1.72 µM; in experiment [3] it was 1.7 µM; in [5] it was 11 µM; in [6] it was 1.58 µM; in [7], 2.02 µM. Also, the GI50 in [8] was 1.62 µM; in experiment [9] it was 1.82 µM; in experiment [10], 1.29 µM. The TGI in [1] was determined as 28.9 µM; in experiment [2] it was 6.33 µM; in experiment [3] it was 3.13 µM; in [5], 23.2 µM; in [6], 3.06 µM; in experiment [7], 4.85 µM. In addition, the values for the TGI in [8], in experiment [9] and in experiment [10] were 2.98 µM, 4.24 µM and 2.64 µM, respectively.

As for `CCCCCCCCCCCC[n+]1ccc2ccccc2c1`, the GI50 in experiment [1] is 2.57 µM; in [2], 1.65 µM; in experiment [3], 1.07 µM; in experiment [4], 0.267 µM; in experiment [5], 1.48 µM; in experiment [7], 0.387 µM. Further, the GI50 in experiment [8] is 0.579 µM; in [9], 0.219 µM; in experiment [10], 1.19 µM. Moreover, the TGI was found to be 8.76 µM in experiment [1]; 5.06 µM in [2]; 2.32 µM in [3]; 0.954 µM in experiment [4]; 3.01 µM in [5]; 1.55 µM in [7]. The results for the TGI in experiment [8], in [9] and in [10] were 1.89 µM, 1.12 µM and 3.23 µM, respectively.

Consider `C=C1C(=O)OC2/C=C(/C)C(OC(C)=O)C/C=C(\C)C(OC(=O)C3(C)OC3C)C(O)C12` (stereo not given), for which the TGI in [1], in [2], in experiment [3], in [4], in [5] and in experiment [6] was greater than 100 µM in each case. Moreover, the TGI in experiment [7], in experiment [8] and in [9] was greater than 100 µM in each case.

In the case of `CN(C)CCNC(=O)c1cccc2c1Oc1c(cccc1[N+](=O)[O-])O2`, the TGI in [1] was 4.78 µM; in [2] it was 1.16 µM; in [3], 2.62 µM; in [4], greater than 100 µM; in experiment [5], 2.48 µM; in [6] it was 10.5 µM. The TGI was 14.4 µM in [7], 13.1 µM in experiment [8] and 12.5 µM in [9].

As to `Nc1ncnc2c1ncn2C1OC(CO)C(O)C1N` (stereo not given), the TGI in [1], in experiment [2], in experiment [4], in experiment [5], in [6] and in experiment [7] was greater than 100 µM each time. Besides, the TGI in [8], in [9] and in experiment [10] was greater than 100 µM each time.

`COc1cc2c3c(n(C)c(=O)c2cc1OC)-c1ccc(C#N)cc1C3=O`: the GI50 in [1] was 64.7 µM; in experiment [2], greater than 100 µM; in experiment [3], greater than 100 µM; in [5], 74.1 µM; in experiment [6], greater than 100 µM; in experiment [7], greater than 100 µM. Further, the GI50 in experiment [8], in experiment [9] and in [10] was greater than 100 µM throughout. In addition, the TGI in experiment [1], in experiment [2], in [3], in [5], in experiment [6] and in experiment [7] was greater than 100 µM in each case. The TGI in [8], in experiment [9] and in experiment [10] was greater than 100 µM in each case.

With `COc1cc2c(=O)[nH]c3cc([N+](=O)[O-])ccc3c2cc1[N+](=O)[O-]`, the GI50 in experiment [1] is 2.46 µM; in experiment [2], 6.18 µM; in experiment [3], 19.5 µM; in [4] it was greater than 100 µM; in experiment [5], 7.38 µM; in [6] it was 3.51 µM. Moreover, the GI50 in experiment [8] is 3.85 µM; in [9], 6.07 µM; in experiment [10], 2.03 µM. The TGI is greater than 100 µM in [1]; greater than 100 µM in experiment [2]; greater than 100 µM in experiment [3]; greater than 100 µM in experiment [4]; 36.2 µM in [5]; greater than 100 µM in [6]. For the same compound, the TGI in experiment [8] is 31.7 µM; in experiment [9], greater than 100 µM; in experiment [10], greater than 100 µM.

`NC(=S)c1c(N)n(C2OC(CO)C(O)C2O)c2ncnc(N)c12` (stereo not given): the GI50 was 0.211 µM in [1]; 0.515 µM in experiment [2]; 0.204 µM in [3]; 0.135 µM in [4]; 0.21 µM in experiment [5]; 0.259 µM in experiment [7]. The results for the GI50 in [8], in [9] and in [10] were 0.287 µM, 0.221 µM and 0.27 µM, respectively. Further, the TGI in [1] is 0.522 µM; in experiment [2], 5.42 µM; in experiment [3], 0.801 µM; in experiment [4] it was 0.407 µM; in experiment [5], 0.904 µM; in experiment [7] it was 1.01 µM. In addition, the TGI in experiment [8] turned out to be 1.2 µM; in experiment [10] it was 2.33 µM.

In the case of `CN(C)C(=S)SCC(=O)Nc1ccccc1`, the TGI in experiment [1], in experiment [2], in [3], in experiment [4], in experiment [5] and in experiment [6] was greater than 100 µM in each case. The TGI in experiment [7], in [8] and in experiment [10] was greater than 100 µM in each case.

For `COc1cccc(/C=C2\COc3ccc(-c4ccccc4)cc3C2=O)c1`, the GI50 in [1] is 1.89 µM; in [2], 2.55 µM; in experiment [3], 2 µM; in experiment [4], 2.52 µM; in [5] it was 3.91 µM; in experiment [6], 2.02 µM. In addition, the GI50 in experiment [7] is 3.21 µM; in experiment [9] it was 2.87 µM; in experiment [10], 2.98 µM. The TGI in experiment [1] was 3.52 µM; in experiment [2], 6.42 µM; in experiment [3], 3.95 µM; in [4], greater than 100 µM; in [5], 9.58 µM; in experiment [6] it was 4.62 µM. Also, the TGI in [7] is greater than 100 µM; in experiment [9], 16.2 µM; in experiment [10], 9.12 µM.

As to `Cc1ccc(S(=O)(=O)NC(CN)C(=O)O)cc1` (stereo not given), the TGI in experiment [1], in experiment [2], in experiment [5], in [6], in experiment [7] and in experiment [8] was greater than 100 µM throughout. Further, the TGI in [9] and in [10] was greater than 100 µM in each case.

With `O=C(CN1C(=O)S/C(=C\C(Cl)=C\c2ccccc2)C1=O)NC1C=CS(=O)(=O)C1` (stereo not given), the GI50 in experiment [1] was 1.42 µM; in [2], 1.65 µM; in experiment [3], 1.95 µM; in experiment [5], 2.97 µM; in experiment [6] it was 0.24 µM; in experiment [7], 1.55 µM. The GI50 is 0.729 µM in experiment [8], 2.15 µM in experiment [9] and 1.37 µM in experiment [10]. Moreover, the TGI in experiment [1] turned out to be 4 µM; in experiment [2] it was 4.23 µM; in [3] it was 3.75 µM; in experiment [5], 11.1 µM; in experiment [6], 0.624 µM; in [7], 3.41 µM. The TGI worked out at 2.33 µM in experiment [8], 7.33 µM in [9] and 2.79 µM in [10].

Consider `COC(=O)C=Cc1ccc2nncnc2c1` (mixture of isomers), for which the TGI in experiment [1] is greater than 100 µM; in [2], greater than 100 µM; in experiment [4], greater than 100 µM; in experiment [5] it was greater than 100 µM; in experiment [6], greater than 100 µM; in [7] it was 35.5 µM. Besides, the TGI in experiment [8], in experiment [9] and in [10] was greater than 100 µM throughout.

`Cc1cc(N2CCN(C)CC2)n2nc(-c3ccc(Cl)cc3)nc2n1`: the TGI in experiment [1], in experiment [2], in experiment [4], in experiment [5], in experiment [6] and in experiment [7] was greater than 100 µM in each case. Besides, the TGI in experiment [8] and in experiment [9] was greater than 100 µM in each case.

Take `CN(CCCNC(=O)CCOCCOCCOCCNC(=O)Cc1ccc2ccc3cccc4ccc1c2c34)CCCNc1cc(-c2ccc3ccccc3c2)nc2ccccc12`: the GI50 is 1.38 µM in [1]; 1.06 µM in [2]; 0.554 µM in experiment [3]; 0.593 µM in experiment [5]; 0.176 µM in [6]; 0.108 µM in experiment [7]. Moreover, the results for the GI50 in experiment [8], in experiment [9] and in [10] were 0.572 µM, 0.435 µM and 5.1 µM, respectively. Also, the TGI turned out to be 2.92 µM in experiment [1]; 3.34 µM in experiment [2]; 1.03 µM in experiment [3]; 1.12 µM in [5]; 0.333 µM in experiment [6]; 0.403 µM in [7]. Moreover, the TGI in experiment [8] is 1.17 µM; in experiment [9], 0.988 µM; in experiment [10], 13.6 µM.

As for `COc1cc2nc3cc([N+](=O)[O-])ccc3c(NCCNCC(C)(C)O)c2cc1OC`, the GI50 was 1.83 µM in experiment [1]; 2.42 µM in experiment [2]; 2.83 µM in experiment [4]; 0.953 µM in experiment [5]; 0.715 µM in [6]; 0.6 µM in [7]. Further, the GI50 in experiment [8] is 0.373 µM; in [9], 0.581 µM; in [10], 1.85 µM. The TGI in experiment [1] worked out at 3.63 µM; in [2] it was 11 µM; in experiment [4], 7.49 µM; in [5], 3.26 µM; in experiment [6], 2.51 µM; in experiment [7], 1.93 µM. Moreover, the results for the TGI in experiment [8], in [9] and in experiment [10] were 1.3 µM, 2.47 µM and 5.93 µM, respectively.

Consider `CN1c2ccccc2N(C(=O)c2ccccc2)C(CC(=O)O)c2cccn21` (stereo not given), for which the TGI in experiment [1], in experiment [2], in experiment [3], in [4], in experiment [5] and in [6] was greater than 100 µM in each case. Moreover, the TGI in [8] and in experiment [10] was greater than 100 µM in each case.
